Measured values published in patent US9856511B2, “Protease deubiquitinating inhibitor screening” (priority 2011, dated 2018).

How the values were obtained:
[1] = test system: FaDu head and neck carcinoma; assay: FaDu head and neck carcinoma xenograft in SCID mice; assay type: in vivo; conditions: plasma
Experimental: (§1) In order to investigate the effect of b-AP15 on tumor growth in vivo, the compound was administered to mice bearing either a human tumor or mouse xenografts. FaDu head and neck carcinoma were chosen as a SCID mouse xenograft both as a model for a p53mut tumor and since this model is suitable for studies using circulating cell death biomarkers (30). Significant inhibition of FaDu tumor growth was observed following daily treatment with b-AP15 (treated/control tumor volume, T/C=0.4, p=<0.001). Similarly b-AP15 (day on/2 day off schedule) inhibited tumor growth in C57BL/6J mice bearing lung carcinomas (T/C=0.16, p=<0.01). […] To examine whether b-AP15 promotes tumor cell death in vivo, plasma levels of cytokeratin-18 (CK18) were analyzed. […] To investigate the ability of b-AP15 to inhibit proteasome deubiquitination in vivo, accumulation of poly-ubiquitin conjugates was analyzed by means of antibodies specific for K48 linked polyubiquitin chains. Histological analysis of treated tumors confirmed the accumulation of poly-ubiquitin conjugates. […]
(§2) Animal experiments were conducted in full accordance with Swedish governmental statutory regulations on animal welfare under permission from local ethical committees. […] All mice were monitored and weighed daily. […] After injection, tumor growth was measured daily with calipers and the tumor volume calculated by the formula L=W^2=0.44. […]

[2] = test system: Lewis Lung Carcinoma (LLC); assay: Lewis Lung Carcinoma (LLC) syngenic tumors in C57BL/6J mice; assay type: in vivo; conditions: 5 mg/kg i.p., day on/2 day off schedule; p=<0.01
Experimental: as §1, §2

HCT-116 cells = assay: Immunoblot of DNA damage markers (phosphorylated p53, H2AX); assay type: cell-based
Experimental: The turnover of many cell cycle regulatory proteins is controlled by the UPS including inhibitors of the cyclin-dependent kinases p21 Cip1, p27 Kip1 and the tumor suppressor p53 (4). Treatment with b-AP15 increased their levels in a dose dependent manner.
HCT-116 cells were treated with b-AP15 or doxorubicin (100 nM, as a positive control for genotoxic stress for 18 h) (FIG. 5). Cell lysates were immuno-blotted with antibodies for phosphorylated p53 and histone H2 Ax marker for DNA damage of for total levels of p53 and β-actin as loading controls.

chaperone genes = assay: Microarray expression of chaperone genes after b-AP15 treatment; assay type: cell-based; conditions: b-AP15 vs vehicle
Experimental: The microarray based gene expression analysis and the Connectivity Map (CMAP) analysis was performed as previously described (40). Briefly, MCF7 cells were exposed to b-AP15 (1 μM, 6 h) or vehicle (0.1% DMSO, 6 h). RNA was isolated (RNeasy miniprep kit, Qiagen) followed by quality control, labelling and hybridization to Genome U133 Plus 2.0 arrays (Affymetrix Inc). Raw data was normalized using Mas5 (Affymetrix Inc.) and rank ordered. For selection of the 30 most induced (up tags) and the 30 most suppressed (down tags) transcripts the following criteria were used: Up tags, present call and expression over 300 arbitrary in the b-AP15 experiment; Down tags, present call after both b-AP15 and vehicle treatment, and expression over 300 arbitrary units in the vehicle experiment. For CMAP compatibility only tags (i.e. probes) present on HG U133A were used. Raw and normalized expression data have been deposited at Gene Expression Omnibus (http://www.ncbi.nlm.nih.gov/geo/) with accession number GSE24150.
Expression of chaperone genes observed in bAP15-treated cells (Table 1) is indicative of induction of a proteotoxic response.

C=CC(=O)N1C/C(=C\c2ccc([N+](=O)[O-])cc2)C(=O)/C(=C/c2ccc([N+](=O)[O-])cc2)C1 [b-AP15]
levels of human CK18 derived from FaDu tumors in the circulation ([1]; total CK18, p=0.01): significant increase | levels of caspase cleaved CK18 (CK18-Asp396) in circulation ([1]; compared with total levels): increased moderately | treated/control tumor volume, T/C [2]: 0.16 | level of DNA damage markers phosphorylated p53 (Ser 15) and H2AX (Ser 139) (HCT-116 cells): no increase was observed | Fold change HSPA6 (chaperone genes; probe set 117_at): 725 | Fold change DNAJB1 (chaperone genes; probe set 200666_s_at): 6 | Fold change HSPA1A (chaperone genes; probe set 200800_s_at): 4 | Fold change DNAJA1 (chaperone genes; probe set 200880_at): 4 | Fold change HSPA1B (chaperone genes; probe set 202581_at): 5 | Fold change DNAJB9 (chaperone genes; probe set 202843_at): 4 | Fold change DNAJB4 (chaperone genes; probe set 203810_at): 16 | Fold change DNAJB4 (chaperone genes; probe set 203811_s_at): 5 | Fold change HSPA4L (chaperone genes; probe set 205543_at): 13 | Fold change HSPH1 (chaperone genes; probe set 206976_s_at): 5 | Fold change HSPA4 (chaperone genes; probe set 211016_x_at): 4 | Fold change DNAJA4 (chaperone genes; probe set 225061_at): 30 | Fold change HSPD1 (chaperone genes; probe set 241716_at): 6
